Common to all, as to assay: growth of human tumour cells (NCI), 48 h
The subject of experiment [1] is A498 renal.
Experiment [2] has as its system CCRF-CEM leukemia.
In experiment [3] the test system is HL-60(TB) leukemia.
In experiment [4] the test system is HT29 colon.
In experiment [5] the test system is K-562 leukemia.
Experiment [6] has as its system MOLT-4 leukemia.
The subject of experiment [7] is NCI-H522 lung.
In experiment [8] the test system is OVCAR-3 ovarian.
Experiment [9] has as its system OVCAR-4 ovarian.
Experiment [10] deals with SK-MEL-28 melanoma.
Experiment [11] concerns SK-OV-3 ovarian.
Experiment [12] deals with SNB-19 CNS.
Experiment [13] relates to SR leukemia.
For experiment [14], the system named is SW-620 colon.
Experiment [15] concerns UACC-257 melanoma.

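Values below derive from 48-hour exposures of cells grown in 96-well plates, with endpoints linearly interpolated between the two concentrations bracketing the appropriate inhibition level. At the TGI there is no net growth.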

Results on 20 molecules are retold here after PubChem BioAssay (NCI).

Regarding `CC1=NN2C(c3ccc([N+](=O)[O-])cc3)=CSC2=NC(C)(C)C1`, the TGI in experiment [1], in experiment [2], in [3], in [4], in experiment [5] and in experiment [6] was over 100 µM each time. Further, the TGI in experiment [7], in experiment [8], in experiment [9], in experiment [10], in [11] and in experiment [12] was over 100 µM in each case. The TGI in experiment [13], in [14] and in experiment [15] was over 100 µM throughout.

For `CC(C)(C)[C@H]1CO[C@]2(c3ccccc3)[C@@H]3C[C@@H]3C(=O)N12`, the TGI in experiment [3], in experiment [4], in [7], in experiment [8], in [9] and in [10] was over 100 µM each time. Moreover, the TGI in [11], in [12], in [13], in experiment [14] and in [15] was over 100 µM throughout.

As to `CC(C)OC/N=C(/N)NC#N`, the TGI in [1], in [3], in experiment [4], in [5], in [6] and in [7] was over 100 µM each time. Besides, the TGI in experiment [8] was over 100 µM; in [9], over 100 µM; in experiment [10], over 100 µM; in experiment [11], over 100 µM; in experiment [12], over 100 µM; in experiment [13], 49.6 µM. Further, the results for the TGI in experiment [14] and in experiment [15] were 45.2 µM and over 100 µM, respectively.

Take `Nc1nc(N)c2ncn(CCOC(c3ccccc3)P(=O)(O)O)c2n1` (stereo not drawn): the TGI in experiment [1], in experiment [2], in [3], in experiment [4], in experiment [6] and in [7] was over 100 µM each time. The TGI in experiment [8], in experiment [10], in [11], in experiment [12], in [13] and in experiment [14] was over 100 µM each time. In addition, in [15], the TGI is over 100 µM.

Turning to `COC(=O)CC(C(C(=O)OC)C(=O)OC)N1C(=O)OC(c2ccccc2)C1c1ccccc1` (stereo not drawn), the TGI in experiment [1], in [2], in experiment [3], in experiment [4], in experiment [5] and in experiment [6] was over 100 µM throughout. For the same molecule, the TGI in experiment [7], in experiment [8], in experiment [9], in experiment [10], in experiment [11] and in experiment [12] was over 100 µM throughout. Further, the TGI is 74.3 µM in [14] and over 100 µM in [15].

Regarding `COc1cc2c(oc(=O)c3cc4cc([Si](C)(C)C)oc4c(OC)c32)c2cccc(O)c12`, the TGI in experiment [1], in experiment [2], in experiment [3], in [4], in experiment [5] and in experiment [6] was over 100 µM in each case. Further, the TGI in [7], in [8], in experiment [9], in [10], in experiment [11] and in experiment [12] was over 100 µM throughout. Moreover, the TGI in experiment [13], in experiment [14] and in experiment [15] was over 100 µM in each case.

On to `CCN(CC)C(=S)SCC(=O)Nc1nc2c(s1)CCCC2`, for which the TGI in [1] is over 100 µM; in experiment [2], over 100 µM; in experiment [3], 47.6 µM; in [4] it was over 100 µM; in experiment [6] it was over 100 µM; in experiment [7], 65.3 µM. For the same molecule, the TGI in experiment [9] is over 100 µM; in [10], over 100 µM; in experiment [11] it was over 100 µM; in experiment [12], over 100 µM; in [13], 90.7 µM; in [14] it was over 100 µM. This molecule yielded a TGI in experiment [15] of over 100 µM.

Take `CC1(C)C(=O)C(C)(C)C1=NNC(N)=S`: the TGI in experiment [3], in [4], in experiment [5], in experiment [6], in experiment [7] and in experiment [8] was over 100 µM throughout. Also, the TGI in experiment [9], in experiment [10], in [11], in experiment [12], in experiment [13] and in [14] was over 100 µM throughout. The same molecule registered a TGI in experiment [15] of over 100 µM.

`N#Cc1ccc(Oc2ccccc2)cc1C#N`: the TGI is over 100 µM in experiment [1]; 56.9 µM in experiment [2]; over 100 µM in experiment [3]; over 100 µM in experiment [4]; over 100 µM in experiment [5]; over 100 µM in [6]. The TGI is 57.2 µM in [7]; over 100 µM in experiment [8]; over 100 µM in experiment [9]; over 100 µM in experiment [10]; over 100 µM in [11]; over 100 µM in experiment [12]. The values for the TGI in experiment [13] and in [15] were 49.7 µM and over 100 µM, respectively.

For `COCN(C)c1nc(N(C)C)nc(N(C)C)n1`, the TGI in experiment [1], in experiment [2], in experiment [3], in experiment [4], in experiment [5] and in experiment [6] was over 100 µM in each case. Further, the TGI in experiment [7] is 37 µM; in experiment [8] it was over 100 µM; in experiment [9], over 100 µM; in [10], over 100 µM; in [11] it was over 100 µM; in experiment [12] it was over 100 µM. In addition, the TGI in [13], in experiment [14] and in experiment [15] was over 100 µM in each case.

`C(=C\C(Sc1ccccc1)c1ccccc1)/NNC1=NC(c2ccccc2)C(c2ccccc2)=NN1` (stereo not drawn): the TGI in [2] was 49.5 µM; in experiment [3] it was 37.6 µM; in experiment [4], 35.4 µM; in experiment [5], 38 µM; in [6] it was 77.9 µM; in experiment [7] it was over 100 µM. Besides, the TGI in [8] was over 100 µM; in experiment [9], over 100 µM; in experiment [10], over 100 µM; in experiment [11] it was over 100 µM; in experiment [12], over 100 µM; in experiment [13], 77.7 µM. The TGI in experiment [14] and in experiment [15] was over 100 µM throughout.

In the case of `Cn1c2ccccc2c2ccc3c(c21)C(=O)C(c1ccccc1)=CC3=O`, the TGI in [2] is over 100 µM; in experiment [3], over 100 µM; in [4] it was over 100 µM; in experiment [5], over 100 µM; in experiment [6], over 100 µM; in experiment [7], 40.2 µM. Besides, the TGI in experiment [8] is 79.2 µM; in [10], 51 µM; in experiment [11] it was over 100 µM; in experiment [12], over 100 µM; in experiment [15] it was over 100 µM.

In the case of `CC(=O)NNc1nc(C)c(C(=O)NNC(=O)C(=O)Nc2c([N+](=O)[O-])ccc(C)c2C)s1`, the TGI in experiment [1], in [2], in [3], in experiment [4], in experiment [5] and in experiment [6] was over 100 µM each time. The TGI in experiment [7], in [8], in experiment [9], in experiment [10], in [12] and in [13] was over 100 µM in each case. Besides, the TGI in experiment [14] and in experiment [15] was over 100 µM throughout.

As for `CSc1ccc(NC(=O)C2c3[nH]c4ccccc4c3C3CCC(C(C)(C)C)CC3C2C(=O)O)cc1` (stereo not drawn), the TGI in [1] was 35.4 µM; in experiment [2] it was 25.8 µM; in experiment [3] it was 23 µM; in experiment [4], 39.1 µM; in experiment [5], over 100 µM; in experiment [6] it was 31.4 µM. Also, the TGI in experiment [7] was 37.4 µM; in experiment [9], 50.1 µM; in [10], 60.5 µM; in experiment [11], 37.3 µM; in experiment [12], 80.2 µM; in experiment [13] it was 25.5 µM. Further, the TGI in experiment [14] was 32.1 µM; in experiment [15], over 100 µM.

In the case of `CC1(C)Cc2c(oc3ncnc(N)c23)CS1`, the TGI in experiment [2], in experiment [4], in experiment [5], in experiment [6], in experiment [7] and in experiment [8] was over 100 µM throughout. For the same molecule, the TGI in experiment [9], in experiment [11], in experiment [12], in experiment [13], in [14] and in experiment [15] was over 100 µM in each case.

`COc1cc([C@@H]2c3cc4c(cc3[C@@H](OC(=O)c3cccc(N)c3)C3COC(=O)[C@@H]32)OCO4)cc(OC)c1O` (stereo partly drawn): the TGI in [1] is 16.6 µM; in experiment [2], over 43 µM; in [3], over 41.2 µM; in [4], 24.5 µM; in experiment [5], over 100 µM; in [6] it was over 59.8 µM. Moreover, the TGI in [8] was over 100 µM; in [9], over 100 µM; in experiment [10], over 100 µM; in experiment [11] it was over 75.2 µM; in experiment [12], over 100 µM; in experiment [13], 17.9 µM. The TGI in [14] is over 100 µM; in experiment [15], over 77.3 µM.

Consider `CC1(C)c2ccccc2N2O[C@@H]3C(=O)N(c4ccccc4)C(=O)[C@@H]3C21c1ccccc1` (stereo partly drawn), for which the TGI in [2], in experiment [3], in [4], in [5], in experiment [6] and in experiment [7] was over 100 µM each time. The TGI in experiment [8], in [10], in experiment [11], in experiment [12], in [14] and in experiment [15] was over 100 µM each time.

With `Cc1c2ccncc2c(C)c2c1[nH]c1ccc(Oc3ccccc3)cc12`, the TGI in [1] was 11.4 µM; in experiment [2] it was 9.41 µM; in experiment [3], 5.88 µM; in experiment [4], 3.84 µM; in [5], 4.01 µM; in experiment [6], 6.44 µM. For the same molecule, the TGI in experiment [8] came out at 7.75 µM; in experiment [9] it was 10.5 µM; in experiment [10], 9.67 µM; in experiment [11] it was 15.9 µM; in experiment [12] it was 46.1 µM; in experiment [13] it was 12.3 µM. Besides, the TGI in experiment [14] was over 100 µM; in [15], 4.33 µM.

For `COC(=O)c1c(-c2cc(OC)c(OC)c(OC)c2)oc2ccccc2c1=O`, the TGI in [1], in [2], in [3], in experiment [4], in [5] and in experiment [6] was over 100 µM in each case. The TGI in experiment [7], in experiment [8], in experiment [9], in experiment [11], in [12] and in experiment [14] was over 100 µM each time. Moreover, in experiment [15], the TGI is over 100 µM.

For `COc1ccc(OC)c(/C=C2\CCc3ccccc3C2=O)c1`, the TGI in [1] is 19.7 µM; in experiment [2], 14.8 µM; in experiment [3], 5.96 µM; in [4] it was 16.7 µM; in [5], 10.8 µM; in experiment [6], 19.8 µM. The TGI in [7] was determined as 4.25 µM; in [8] it was 7.67 µM; in [9], 22.9 µM; in experiment [10], 28.1 µM; in experiment [11] it was 18.8 µM; in experiment [12] it was 28.9 µM. In addition, the TGI in experiment [14] was 15.4 µM.
